Patent publication US20230011571A1, “SMALL MOLECULE FURIN INHIBITORS FOR TREATING INFECTIOUS DISEASES” (BP Asset V, Inc., priority 2019, published 2023)

Tests used:
Format in all cases: cell-based
Marburg virus (MARV) = experiment: organism not typed; details: Vero, 72 h, read-out: Percent viral inhibition MARV
dengue virus (DENV) = experiment: microbe, parasite or virus in culture; details: Dengue virus, Vero, 120 h, read-out: Percent viral inhibition DENY
[1] = test system: Chikungunya virus (CHIKV); experiment: microbe, parasite or virus in culture; details: Chikungunya virus, Vero, 48 h, read-out: Percent viral inhibition CHKV

| SMILES | inhibition at 1 µM (Marburg virus (MARV)) | inhibition at 1 µM (dengue virus (DENV)) | inhibition at 1 µM [1] |
| --- | --- | --- | --- |
| C[C@]1(O)C[C@H](N2CCN(c3ncc(Oc4cc(CN5CCC(CC(=O)O)CC5)cc(-c5cc(Cl)cc(Cl)c5)n4)cn3)CC2)C1 [Example 25, 2-(1-((2-(3,5-dichlorophenyl)-6-((2-(4-((1r,3r)-3-hydroxy-3-methylcyclobutyl)piperazin-1-yl)pyrimidin-5-yl)oxy)pyridin-4-yl)methyl)piperidin-4-yl)acetic acid] | 65.5% | 13.7% | 26.3% |
| CC(=O)NCC1CCN(Cc2cc(Oc3ccc(N4CCN([C@H]5C[C@@H](NS(C)(=O)=O)C5)CC4)nc3)nc(-c3cc(Cl)cc(Cl)c3)c2)CC1 [Example 27, N-((1-((2-(3,5-dichlorophenyl)-6-((6-(4-((cis)-3-(methylsulfonamido)cyclobutyl)piperazin-1-yl)pyridin-3-yl)oxy)pyridin-4-yl)methyl)piperidin-4-yl)methyl)acetamide] | 50.3% | 51.1% | 26.8% |
| CC(=O)NCC1CCN(Cc2cc(Oc3ccc(N4CCN(CCP(=O)(O)O)CC4)nc3)nc(-c3cc(Cl)cc(Cl)c3)c2)CC1 [Example 30, (2-(4-(5-((4-((4-(acetamidomethyl)piperidin-1-yl)methyl)-6-(3,5-dichlorophenyl)pyridin-2-yl)oxy)pyridin-2-yl)piperazin-1-yl)ethyl)phosphonic acid] | 15.5% | 44.3% | 10.1% |
| CC(=O)NCC1CCN(Cc2cc(Oc3ccc(N4CCN(CCOC(N)=O)CC4)nc3)nc(-c3cc(Cl)cc(Cl)c3)c2)CC1 [Example 31, 2-(4-(5-((4-((4-(acetamidomethyl)piperidin-1-yl)methyl)-6-(3,5-dichlorophenyl)pyridin-2-yl)oxy)pyridin-2-yl)piperazin-1-yl)ethylcarbamate] | 61.4% | 38.9% | 18.7% |
| CC(=O)NCC1CCN(Cc2cc(Oc3ccc(N4CCN(CCN(C)S(C)(=O)=O)CC4)nc3)nc(-c3cc(Cl)cc(Cl)c3)c2)CC1 [Example 32, N-((1-((2-(3,5-dichlorophenyl)-6-((6-(4-(2-(N-methylmethylsulfonamido)ethyl)piperazin-1-yl)pyridin-3-yl)oxy)pyridin-4-yl)methyl)piperidin-4-yl)methyl)acetamide] | 63.5% | 34.2% | 49.4% |
| CC(=O)NCC1CCN(Cc2cc(Oc3ccc(N4CCN(C(=O)CCC(=O)O)CC4)nc3)nc(-c3cc(Cl)cc(Cl)c3)c2)CC1 [Example 33, 4-(4-(5-((4-((4-(acetamidomethyl)piperidin-1-yl)methyl)-6-(3,5-dichlorophenyl)pyridin-2-yl)oxy)pyridin-2-yl)piperazin-1-yl)-4-oxobutanoic acid] | 67.3% | 49.4% | 36.5% |
| CC(=O)NCC1CCN(Cc2cc(Oc3ccc(N4CCN(CC5(CO)CC5)CC4)nc3)nc(-c3cc(Cl)cc(Cl)c3)c2)CC1 [Example 34, N-((1-((2-(3,5-dichlorophenyl)-6-((6-(4-((1-(hydroxymethyl)cyclopropyl)methyl)piperazin-1-yl)pyridin-3-yl)oxy)pyridin-4-yl)methyl)piperidin-4-yl)methyl)acetamide] | 30.3% | 46.8% | 1.42% |
| CCNC(=O)CC1CCN(Cc2cc(Oc3ccc(N4CCN(CCCS(C)(=O)=O)CC4)nc3)nc(-c3cc(Cl)cc(Cl)c3)c2)CC1 [Example 36, 2-(1-((2-(3,5-dichlorophenyl)-6-((6-(4-(3-(methylsulfonyl)propyl)piperazin-1-yl)pyridin-3-yl)oxy)pyridin-4-yl)methyl)piperidin-4-yl)-N-ethylacetamide] | 52.5% | 38% | 5.78% |
| CNCc1cc(Oc2cnc(N3CCN(CCCS(C)(=O)=O)CC3)nc2)nc(-c2cc(Cl)cc(Cl)c2)c1 [Example 37, 1-(2-(3,5-dichlorophenyl)-6-((2-(4-(3-(methylsulfonyl)propyl)piperazin-1-yl)pyrimidin-5-yl)oxy)pyridin-4-yl)-N-methylmethanamine] | 56.6% | 100% | 32.9% |
| NS(=O)(=O)CC1CCN(Cc2cc(Oc3ccc(N4CCN(CCC(=O)O)CC4)nc3)nc(-c3cc(Cl)cc(Cl)c3)c2)CC1 [Example 38, 3-(4-(5-((6-(3,5-dichlorophenyl)-4-((4-(sulfamoylmethyl)piperidin-1-yl)methyl)pyridin-2-yl)oxy)pyridin-2-yl)piperazin-1-yl)propanoic acid] | 50% | 14.2% | 39.1% |
| CS(=O)(=O)CC1CCN(Cc2cc(Oc3ccc(N4CCN(CCC(=O)O)CC4)nc3)nc(-c3cc(Cl)cc(Cl)c3)c2)CC1 [Example 39, 3-(4-(5-((6-(3,5-dichlorophenyl)-4-((4-((methylsulfonyl)methyl)piperidin-1-yl)methyl)pyridin-2-yl)oxy)pyridin-2-yl)piperazin-1-yl)propanoic acid] | 60.1% | 54.7% | 23.7% |
| CNC(=O)NCC1CCN(Cc2cc(Oc3ccc(N4CCN(CCO)CC4)nc3)nc(-c3cc(Cl)cc(Cl)c3)c2)CC1 [Example 40, 1-((1-((2-(3,5-dichlorophenyl)-6-((6-(4-(2-hydroxyethyl)piperazin-1-yl)pyridin-3-yl)oxy)pyridin-4-yl)methyl)piperidin-4-yl)methyl)-3-methylurea] | 0% | 0% | 3.24% |
| CNC(=O)NCC1CCN(Cc2cc(Oc3ccc(N4CCN(CCC(=O)O)CC4)nc3)nc(-c3cc(Cl)cc(Cl)c3)c2)CC1 [Example 41, 3-(4-(5-((6-(3,5-dichlorophenyl)-4-((4-((3-methylureido)methyl)piperidin-1-yl)methyl)pyridin-2-yl)oxy)pyridin-2-yl)piperazin-1-yl)propanoic acid] | 43% | 68.7% | 30.1% |
| CC(=O)NCC1CCN(Cc2cc(Oc3ccc(N)cc3)cc(-c3cc(Cl)cc(Cl)c3)c2)CC1 [Example 42, N-((1-((5-(4-aminophenoxy)-3′,5′-dichloro-[1,1′-biphenyl]-3-yl)methyl)piperidin-4-yl)methyl)acetamide] | 0% | 24% | 7.42% |
| CS(=O)(=O)NCC1CCN(Cc2cc(Oc3ccc(N4CCN(CCC(=O)O)CC4)nc3)nc(-c3cc(Cl)cc(Cl)c3)c2)CC1 [Example 44, 3-(4-(5-((6-(3,5-dichlorophenyl)-4-((4-(methylsulfonamidomethyl)piperidin-1-yl)methyl)pyridin-2-yl)oxy)pyridin-2-yl)piperazin-1-yl)propanoic acid] | 49% | 69% | 35.5% |
| CC(=O)NCC1CCN(Cc2cc(Oc3ccc(N)cn3)cc(-c3cc(Cl)cc(Cl)c3)c2)CC1 [Example 45, N-((1-((5-((5-aminopyridin-2-yl)oxy)-3′,5′-dichloro-[1,1′-biphenyl]-3-yl)methyl)piperidin-4-yl)methyl)acetamide] | 18.4% | 0% | 0% |
| CNC(=O)NCC1CCN(Cc2cc(Oc3cnc(N4CCN(CCCS(N)(=O)=O)CC4)nc3)nc(-c3cc(Cl)cc(Cl)c3)c2)CC1 [Example 48, 3-(4-(5-((6-(3,5-dichlorophenyl)-4-((4-((3-methylureido)methyl)piperidin-1-yl)methyl)pyridin-2-yl)oxy)pyrimidin-2-yl)piperazin-1-yl)propane-1-sulfonamide] | 15.7% | 26% | 15.2% |
| COC(=O)NCC1(F)CCN(Cc2cc(Oc3cnc(N4CCN(CCC(=O)O)CC4)nc3)nc(-c3cc(Cl)cc(Cl)c3)c2)CC1 [Example 51, 3-(4-(5-((6-(3,5-dichlorophenyl)-4-((4-fluoro-4-(((methoxycarbonyl)amino)methyl)piperidin-1-yl)methyl)pyridin-2-yl)oxy)pyrimidin-2-yl)piperazin-1-yl)propanoic acid] | 43.6% | 56.7% | 21.1% |
| CN1CCN(c2ncc(Oc3cc(CN4CCC(CCO)CC4)cc(-c4cc(Cl)cc(Cl)c4)n3)cn2)CC1 [Example 52, 2-(1-((2-(3,5-dichlorophenyl)-6-((2-(4-methylpiperazin-1-yl)pyrimidin-5-yl)oxy)pyridin-4-yl)methyl)piperidin-4-yl)ethanol] | 29.9% | 45.6% | 26.3% |
| CN1CCN(c2ncc(Oc3cc(CN4CCC(OCC(=O)O)CC4)cc(-c4cc(Cl)cc(Cl)c4)n3)cn2)CC1 [Example 53, 2-((1-((2-(3,5-dichlorophenyl)-6-((2-(4-methylpiperazin-1-yl)pyrimidin-5-yl)oxy)pyridin-4-yl)methyl)piperidin-4-yl)oxy)acetic acid] | 53.5% | 42.5% | 30% |
| NC(=O)OCCN1CCN(Cc2cc(Oc3cnc(N4CCN(CCC(=O)O)CC4)nc3)nc(-c3cc(Cl)cc(Cl)c3)c2)CC1 [Example 54, 3-(4-(5-((4-((4-(2-(carbamoyloxy)ethyl)piperazin-1-yl)methyl)-6-(3,5-dichlorophenyl)pyridin-2-yl)oxy)pyrimidin-2-yl)piperazin-1-yl)propanoic acid] | 62.7% | 70.5% | 36.8% |
| NC(=O)OCCN1CCN(Cc2cc(Oc3ccc(N4CCN(CCC(=O)O)CC4)nc3)nc(-c3cc(Cl)cc(Cl)c3)c2)CC1 [Example 55, 3-(4-(5-((4-((4-(2-(carbamoyloxy)ethyl)piperazin-1-yl)methyl)-6-(3,5-dichlorophenyl)pyridin-2-yl)oxy)pyridin-2-yl)piperazin-1-yl)propanoic acid] | 40.2% | 3.58% | 16.8% |
